EP0823908B1, “PYRIDO[2,3-d]PYRIMIDINES FOR INHIBITING PROTEIN TYROSINE KINASE MEDIATED [sequence] PROLIFERATION” (Warner-Lambert Company LLC, priority 1995, dated 1996)
pIC50: −log10 of the molar value.

What was measured:
Assay type in all cases: biochemical
[1] = target: T1, human FGF-1 (flg) receptor tyrosine kinase (Homo sapiens, UniProt P11362); assay: FGF receptor tyrosine kinase assay (32P incorporation into glutamate-tyrosine co-polymer); conditions: for pIC50: read-out: FGFr-TK IC50; for inhibition at 50 µM: read-out: FGFr-TK % Inhibition at 50 µM
T1 construct: amplify a fragment of DNA that codes for the intracellular tyrosine kinase domain; made in house; host or cells: SF9 insect cells (baculovirus)
Description: (§1) Full length cDNAs for the mouse PDGF-β and human FGF-1 (flg) receptor tyrosine kinases were obtained from J. Escobedo and prepared as described in J. Biol. Chem., 262:1482-1487 […], and PCR primers were designed to amplify a fragment of DNA that codes for the intracellular tyrosine kinase domain. The fragment was melded into a baculovirus vector, cotransfected with AcMNPV DNA, and the recombinant virus isolated. SF9 insect cells were infected with the virus to overexpress the protein, and the cell lysate was used for the assay. The assay was performed in 96-well plates (100 µL/incubation/well), and conditions were optimized to measure the incorporation of ^32P from γ^32P-ATP into a glutamate-tyrosine co-polymer substrate. Briefly, to each well was added 82.5 µL of incubation buffer containing 25 mM Hepes (pH 7.0), 150 mM NaCl, 0.1% Triton X-100, 0.2 mM PMSF, 0.2 mM Na3VO4, 10 mM MnCl2, and 750 µg/mL of Poly (4:1) glutamate-tyrosine followed by 2.5 µL of inhibitor and 5µL of enzyme lysate (7.5 µg/µL FGF-TK or 6.0 µg/µL PDGF-TK) to initiate the reaction. Following a 10 minute incubation at 25°C, 10 µL of γ^32P-ATP (0.4 µCi plus 50 µM ATP) was added to each well and samples were incubated for an additional 10 minutes at 25°C. The reaction was terminated by the addition of 100 µL of 30% trichloroacetic acid (TCA) containing 20 mM sodium pyrophosphate and precipitation of material onto glass fiber filter mats (Wallac). […] Nonspecific activity was defined as radioactivity retained on the filters following incubation of samples with buffer alone (no enzyme). Specific enzymatic activity was defined as total activity (enzyme plus buffer) minus nonspecific activity.

[2] = target: T2, Human EGF receptor tyrosine kinase (Homo sapiens, UniProt P00533); assay: EGF receptor tyrosine kinase enzyme assay (substrate peptide phosphorylation); conditions: for inhibition at 50 µM: read-out: EGF-FL % Inhibition at 50 µM; for pIC50: read-out: EGF-FL IC50
T2 construct: Human EGF receptor tyrosine kinase was isolated from A431 epidermoid carcinoma cells; endogenous in cells; host or cells: A431 epidermoid carcinoma cells
Description: Human EGF receptor tyrosine kinase was isolated from A431 epidermoid carcinoma cells by the following methods. Cells were grown in roller bottles in 50% Dulbecco's Modified Eagle medium and 50% HAM F-12 nutrient media (Gibco) containing 10% fetal calf serum. Approximately 10^9 cells were lysed in two volumes of buffer containing 20 mM 2-(4N-[2-hydroxymethyl]-piperazin-1-yl)ethanesulfonic acid, pH 7.4, 5 mM ethylene glycol bis(2-aminoethyl ether) N,N,N',N'-tetraacetic acid, 1% Triton X-100, 10% glycerol, 0.1 mM sodium orthovanadate, 5 mM sodium fluoride, 4 mM pyrophosphate, 4 mM benzamide, 1 mM dithiothreitol, 80 µg/mL aprotinin, 40 µg/mL leupeptin, and 1 mM phenylmethylsulfonyl fluoride. […] Contaminating proteins were washed from the resin with 1 M NaCl in equilibration buffer, and the enzyme was eluted with 0.5 M N-acetyl-1-D-glucosamine in equilibration buffer.
The reaction was terminated by the addition of 2 mL of 75 mM phosphoric acid and passed through a 2.5-cm phosphocellulose filter disc to bind the peptide. The filter was washed 5 times with 75 mM phosphoric acid and placed in a vial along with 5 mL of scintillation fluid (Ready gel Heckman).

C-src kinase = target: T3, C-src kinase (Homo sapiens, UniProt P12931); assay: C-src kinase assay (poly GluTyr substrate); conditions: for pIC50: read-out: C-src TK IC50; for inhibition at 50 µM: read-out: C-src TK % Inhibition at 50 µM
T3 construct: made in house; host or cells: baculovirus infected insect cells
Description: V-src or C-src kinase is purified from baculovirus infected insect cell lysates using an antipeptide monoclonal antibody directed against the N-terminal 2-17 amino acids. The antibody, covalently linked to 0.65-µm latex beads, is added to a suspension of insect cell lysis buffer comprised of 150 mM NaCl, 50 mM Tris pH 7.5, 1 mM DTT, 1% NP-40, 2 mM EGTA, 1 mM sodium vanadate, 1 mM PMSF, 1 µg/mL each of leupeptin, pepstatin, and aprotinin. […] At the end of the lysate incubation, the beads are rinsed 3 times in lysis buffer, resuspended in lysis buffer containing 10% glycerol, and frozen. These latex beads are thawed, rinsed 3 times in assay buffer which is comprised of 40 mM tris pH 7.5, 5 mM MgCl2, and suspended in the same buffer. In a Millipore 96-well plate with a 0.65 µm polyvinylidine membrane bottom are added the reaction components: 10-µL V-src or C-src beads, 10 µL of 2.5 mg/mL poly GluTyr substrate, 5 µM ATP containing 0.2 µCi labeled ^32P-ATP, 5µL DMSO containing inhibitors or as a solvent control, and buffer to make the final volume 125 µL. The reaction is started at room temperature by addition of the ATP and quenched 10 minutes later by the addition of 125 µL of 30% TCA, 0.1 M sodium pyrophosphate for 5 minutes on ice. […] The filters are punched, counted in a liquid scintillation counter, and the data examined for inhibitory activity in comparison to a known inhibitor such as erbstatin.

[3] = target: T4, mouse PDGF-β receptor tyrosine kinase (Mus musculus, UniProt P05622); assay: PDGF receptor tyrosine kinase assay (32P incorporation into glutamate-tyrosine co-polymer); conditions: for pIC50: read-out: PDGFr-TK IC50; for inhibition at 50 µM: read-out: PDGFr-TK % Inhibition at 50 µM
T4 construct: amplify a fragment of DNA that codes for the intracellular tyrosine kinase domain; made in house; host or cells: SF9 insect cells (baculovirus)
Description: as §1

T2 sequence (P00533 25-1210): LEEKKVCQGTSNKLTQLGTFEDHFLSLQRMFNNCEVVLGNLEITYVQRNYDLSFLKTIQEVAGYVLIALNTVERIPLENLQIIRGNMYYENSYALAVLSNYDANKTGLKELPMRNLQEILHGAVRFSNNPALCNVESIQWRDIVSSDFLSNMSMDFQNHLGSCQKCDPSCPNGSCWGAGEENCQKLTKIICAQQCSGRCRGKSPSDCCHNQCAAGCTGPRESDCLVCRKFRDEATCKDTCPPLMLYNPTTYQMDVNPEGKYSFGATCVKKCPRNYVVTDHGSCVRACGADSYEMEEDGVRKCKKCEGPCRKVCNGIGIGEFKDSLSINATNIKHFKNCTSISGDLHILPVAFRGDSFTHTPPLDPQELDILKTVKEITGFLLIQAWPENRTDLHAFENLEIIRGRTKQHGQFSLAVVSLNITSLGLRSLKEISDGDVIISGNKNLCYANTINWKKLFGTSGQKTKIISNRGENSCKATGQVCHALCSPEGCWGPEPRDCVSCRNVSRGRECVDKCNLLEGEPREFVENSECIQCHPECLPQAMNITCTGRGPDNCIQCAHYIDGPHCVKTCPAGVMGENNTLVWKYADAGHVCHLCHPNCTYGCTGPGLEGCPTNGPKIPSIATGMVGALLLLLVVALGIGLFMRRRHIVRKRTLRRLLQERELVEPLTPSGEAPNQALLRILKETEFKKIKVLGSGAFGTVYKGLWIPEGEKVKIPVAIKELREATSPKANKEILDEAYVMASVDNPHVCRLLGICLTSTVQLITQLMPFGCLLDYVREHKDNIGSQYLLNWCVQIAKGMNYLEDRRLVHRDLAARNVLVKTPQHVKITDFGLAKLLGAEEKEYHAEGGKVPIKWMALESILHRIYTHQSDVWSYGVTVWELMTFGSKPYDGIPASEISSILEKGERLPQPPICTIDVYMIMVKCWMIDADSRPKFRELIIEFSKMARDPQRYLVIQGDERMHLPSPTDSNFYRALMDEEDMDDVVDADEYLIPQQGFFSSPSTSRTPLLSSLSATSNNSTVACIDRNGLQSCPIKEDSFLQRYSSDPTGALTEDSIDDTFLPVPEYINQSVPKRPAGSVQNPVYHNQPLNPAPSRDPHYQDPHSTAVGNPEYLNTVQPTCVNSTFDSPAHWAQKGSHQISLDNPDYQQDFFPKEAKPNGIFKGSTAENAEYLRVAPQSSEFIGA
T3 sequence (P12931 whole entry): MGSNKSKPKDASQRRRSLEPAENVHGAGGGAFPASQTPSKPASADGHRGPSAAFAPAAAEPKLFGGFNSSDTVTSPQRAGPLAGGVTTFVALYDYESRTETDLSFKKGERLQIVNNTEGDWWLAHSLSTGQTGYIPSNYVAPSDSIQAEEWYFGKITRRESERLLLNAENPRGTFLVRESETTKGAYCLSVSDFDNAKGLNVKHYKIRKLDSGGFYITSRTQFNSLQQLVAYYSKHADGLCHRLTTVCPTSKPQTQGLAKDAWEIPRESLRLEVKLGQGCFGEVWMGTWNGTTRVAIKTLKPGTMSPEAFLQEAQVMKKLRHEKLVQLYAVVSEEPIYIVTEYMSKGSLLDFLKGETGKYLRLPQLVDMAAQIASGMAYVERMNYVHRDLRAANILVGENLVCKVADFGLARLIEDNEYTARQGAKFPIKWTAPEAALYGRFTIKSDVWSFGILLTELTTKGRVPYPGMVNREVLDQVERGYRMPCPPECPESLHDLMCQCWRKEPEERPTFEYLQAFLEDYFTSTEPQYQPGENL
T4 sequence (P05622 599-961 limits assumed): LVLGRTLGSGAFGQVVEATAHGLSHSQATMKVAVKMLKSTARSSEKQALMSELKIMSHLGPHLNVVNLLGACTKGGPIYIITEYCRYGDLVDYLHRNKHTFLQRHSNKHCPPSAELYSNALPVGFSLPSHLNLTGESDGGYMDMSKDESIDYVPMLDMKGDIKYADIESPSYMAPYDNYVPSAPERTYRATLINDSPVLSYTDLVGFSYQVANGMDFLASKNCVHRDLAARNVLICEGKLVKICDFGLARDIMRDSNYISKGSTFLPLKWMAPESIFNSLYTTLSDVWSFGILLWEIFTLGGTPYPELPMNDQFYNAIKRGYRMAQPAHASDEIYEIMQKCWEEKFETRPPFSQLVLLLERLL
T1 sequence (P11362 478-767 limits assumed): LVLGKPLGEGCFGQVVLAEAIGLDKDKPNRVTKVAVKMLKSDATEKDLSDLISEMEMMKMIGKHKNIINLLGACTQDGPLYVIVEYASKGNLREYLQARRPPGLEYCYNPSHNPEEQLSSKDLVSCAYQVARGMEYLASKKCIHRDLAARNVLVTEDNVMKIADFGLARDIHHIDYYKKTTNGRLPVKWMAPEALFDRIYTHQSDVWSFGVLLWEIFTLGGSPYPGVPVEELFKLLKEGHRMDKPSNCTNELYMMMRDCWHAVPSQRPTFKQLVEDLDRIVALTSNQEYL

Structure (SMILES)	pIC50 [1]	inhibition at 50 µM [2]	pIC50 (C-src kinase)	pIC50 [3]	inhibition at 50 µM (C-src kinase)	inhibition at 50 µM [3]	pIC50 [2]	inhibition at 50 µM [1]
COc1ccc(CCNc2ncc3cc(-c4c(Cl)cccc4Cl)c(=O)n(C)c3n2)cc1OC [Example 48, 6-(2,6-Dichlorophenyl)-2-[2-(3,4-dimethoxyphenyl)-ethylamino]-8-methyl-8H-pyrido[2,3-d]pyrimidin-7-one]	4.71	64%	5.60	4.75				
CC(C)Nc1ncc2cc(-c3c(Cl)cccc3Cl)c(=O)n(C)c2n1 [Example 44, 6-(2,6-Dichlorophenyl)-2-isopropylamino-8-methyl-8H-pyrido[2,3-d]pyrimidin-7-one]	6.06	64%	5.80	5.68				
COc1ccccc1N1CCN(CCCNc2ncc3cc(-c4c(Cl)cccc4Cl)c(=O)n(C)c3n2)CC1 [Example 52, 6-(2,6-Dichlorophenyl)-2-[3-[4-(2-methoxyphenyl)-piperazin-1-yl]-propylamino]-8-methyl-8H-pyrido[2,3-d]pyrimidin-7-one]	5.44	46%	5.98	5.27				
Cn1c(=O)c(-c2c(Cl)cccc2Cl)cc2cnc(S(C)(=O)=O)nc21 [Example 39, 6-(2,6-Dichlorophenyl)-2-methanesulfonyl-8-methyl-8H-pyrido[2,3-d]pyrimidin-7-one]	5.26	24%			26%	19%		
CCn1c(=O)c(-c2c(Cl)cccc2Cl)cc2cnc(Nc3ccc(O)cc3)nc21 [Example 75, 6-(2,6-Dichlorophenyl)-8-ethyl-2-(4-hydroxyphenylamino)-8H-pyrido[2,3-d]pyrimidin-7-one]	6.85			6.45	0%		7.68	
CCCn1c(=O)c(-c2c(Cl)cccc2Cl)cc2cnc(N)nc21 [Example 31, 2-Amino-6-(2,6-dichlorophenyl)-8-propyl-8H-pyrido[2,3-d]pyrimidin-7-one]	6.34	100%		5.92	100%			
COc1ccc(Nc2ncc3cc(-c4c(Cl)cccc4Cl)c(=O)n(C)c3n2)cc1C [Example 73, 6-(2,6-Dichlorophenyl)-2-(4-methoxy-3-methylphenylamino)-8-methyl-8H-pyrido[2,3-d]pyrimidin-7-one]	6.35		7.43	5.89			6.80	
CCn1c(=O)c(-c2c(Cl)cccc2Cl)cc2cnc(Nc3ccc(OC)c(OC)c3)nc21 [Example 77, 6-(2,6-Dichlorophenyl)-2-(3,4-dimethoxyphenylamino)-8-ethyl-8H-pyrido[2,3-d]pyrimidin-7-one]	6.91		7.72	5.95			7.03	
CSc1ncc2cc(-c3c(Cl)cccc3Cl)c(=O)n(C)c2n1 [Example 37, 6-(2,6-Dichlorophenyl)-8-methyl-2-methylsulfanyl-8H pyrido[2,3-d]pyrimidin-7-one]		42%			33%	33%		29%
Cn1c(=O)c(-c2c(Cl)cccc2Cl)cc2cnc([S+](C)[O-])nc21 (stereo not drawn) [Example 53, 6-(2,6-Dichlorophenyl)-2-methanesulfinyl-8-methyl-8H-pyrido[2,3-d]pyrimidin-7-one]					15%	20%	6.07	45%
CCn1c(=O)c(-c2c(Cl)cccc2Cl)cc2cnc(Nc3cc(OC)c(OC)c(OC)c3)nc21 [Example 78, 6-(2,6-Dichlorophenyl)-8-ethyl-2-(3,4,5-trimethoxyphenylamino)-8H-pyrido[2,3-d]pyrimidin-7-one]	6.84			5.77	46%		7.01	
Cc1ccccc1-c1cc2cnc(N)nc2n(C)c1=O [Example 14, 2-Amino-6-(2-methylphenyl)-8-methyl-pyrido[2,3-d]-pyrimidin-7(8H)-one]	5.12	65%	5.41	5.85				
